Data from paper PMC8567104 (Frontiers in Pharmacology, 2021).
“And” between values parts separate entries of the source, which are not always exact repeats. Identical values can stand only once. Like-named read-outs stand apart in the source and are kept apart here.

Experiments:
hNav1.5 [1] = target: T1, hNav1.5 (Homo sapiens, UniProt Q14524); experiment: Voltage-dependence of fast inactivation; format: cell-based; set-up: expressed in transfected cells; host or cells: tsA201 (HEK293 derivative)
Description: Electrophysiological experiments were performed as previously described ([Ludolph et al., 2010]; [Föhr et al., 2021]). Briefly, tsA201 cells were used for experiments 24–48 h after transfection. Membrane currents were recorded in the whole-cell recording mode using an EPC-9 amplifier and Patchmaster software (v2x73; HEKA, Lambrecht, Germany ([Hamill et al., 1981])). Before recording, cells were rinsed twice with an extracellular standard solution containing (in mM): 140 NaCl, 5 KCl, 1.5 CaCl2, 1.0 MgCl2, 10 glucose and 12 HEPES (4-(2-hydroxyethyl)piperazine- 1-ethanesulfonic acid; pH 7.3). For establishing activation curves, the concentration of NaCl was reduced to 30 mM to achieve current amplitudes in the range of 1 nA. Lacking cations were replaced equimolar by N-Methyl-D-glucamine (NMDG). Patch pipettes were drawn from borosilicate glass with tip resistances of about 2 MΩ when filled with (in mM): 125 CsF, 10 NaCl, 10 EGTA (ethylene glycol-bis(2-aminoethylether)-N,N,N′,N′-tetraacetic acid), 10 HEPES; pH 7.2. To improve sealing, tips were briefly dipped into 2% dimethylsilane dissolved in dichloromethane. […]
FIGURE 5 Voltage-dependence of fast inactivation. […] Voltage-dependence of fast inactivation was determined by measuring sodium currents elicited by 5 ms depolarizations to −20 mV after conditioning pre-pulses for 500 ms to different potentials (range −140 to −45 mV).

hNav1.5 [2] = target: T1, hNav1.5; details: 10 µM
Description: (§1) Electrophysiological experiments were performed as previously described ([Ludolph et al., 2010]; [Föhr et al., 2021]). Briefly, tsA201 cells were used for experiments 24–48 h after transfection. Membrane currents were recorded in the whole-cell recording mode using an EPC-9 amplifier and Patchmaster software (v2x73; HEKA, Lambrecht, Germany ([Hamill et al., 1981])). Before recording, cells were rinsed twice with an extracellular standard solution containing (in mM): 140 NaCl, 5 KCl, 1.5 CaCl2, 1.0 MgCl2, 10 glucose and 12 HEPES (4-(2-hydroxyethyl)piperazine- 1-ethanesulfonic acid; pH 7.3). For establishing activation curves, the concentration of NaCl was reduced to 30 mM to achieve current amplitudes in the range of 1 nA. Lacking cations were replaced equimolar by N-Methyl-D-glucamine (NMDG). Patch pipettes were drawn from borosilicate glass with tip resistances of about 2 MΩ when filled with (in mM): 125 CsF, 10 NaCl, 10 EGTA (ethylene glycol-bis(2-aminoethylether)-N,N,N′,N′-tetraacetic acid), 10 HEPES; pH 7.2. To improve sealing, tips were briefly dipped into 2% dimethylsilane dissolved in dichloromethane.
(§2) Unless otherwise stated, the membrane potential was held at −140 mV from which channel activations were elicited by brief depolarizing pulses to −20 mV of 5 ms duration. In order to minimize voltage errors, the series resistance was compensated up to 80%. Cells with currents larger than 6 nA were excluded from evaluation. Specific protocols are illustrated in figure legends where appropriate.
Recovery time constants were estimated from double or triple exponential fits according to: I/Imax=1−a1∗e^(−t/τ1)−a2∗e^(−t/τ2)−a3∗e^(−t/τ3) (11)
Variable identifiers have the same meaning as before, with a 1 + a 2 + a 3 = 1.
If a drug interacts with the inactivated state (fast or slow), it is expected that also recovery from inactivation is affected. We analyzed this aspect by the use of a tri-pulse experiment (Figure 10B). After an initial control pulse, sufficient time was provided for full recovery. Next channels were inactivated for 500 ms at −20 mV. The test-pulse was initiated after channels had been allowed to recover at a potential of −140 mV for a variable time (range: 0.2 ms to 2.7 s). For evaluation, the current amplitudes of the test-pulses were related to their controls and plotted versus the recovery time (Figure 10A). To describe the time course of recovery, data points were fitted with double exponential functions (Eq. 11). […] In order to estimate recovery from slow inactivation, the experimental scheme was modified to a prolonged inactivation time (10 s) and an expansion of the recovery time up to 32.8 s (Figure 10D).
FIGURE 10 Recovery from inactivation. (A) Recovery from fast inactivation. The relative amount of available channels versus the recovery time at −140 mV is illustrated. Solid lines represent fits with two exponential functions according to Eq. 11. (B) Experimental scheme. After an initial control pulse, inactivation was performed at −20 mV for 500 ms. The test-pulse was applied after a varying time of recovery. For evaluation, current amplitudes of the test-pulses were related to their controls.

hNav1.5 [3] = target: T1, hNav1.5; experiment: cell-based
Description: as §1, §2

hNav1.5 N406C mutant = hNav1.5 N406C mutant (Homo sapiens, UniProt Q14524, N406C); details: inactivated channels
Description: as §1
(§3) Concentration-inhibition curves for estimating Kr (IC 50 at −140 mV; Figure 3), Ki (Figures 8, 13, 14), Ko (Figures 12, 17) or K app (Figure 9) were fitted to the Hill-equation.

hNav1.5 F1760K mutant = hNav1.5 F1760K mutant (Homo sapiens, UniProt Q14524, F1760K, form not given); details: inactivated channels
Description: as §1, §3

[4] = set-up: method as in Allen et al., 2016; details: weekly oral dose of 625 mg; patients; ref Allen et al., 2016; cited from earlier work
[5] = target: T2, hNav1.5_I408W_L409C_A410W (WCW mutant) (Homo sapiens, UniProt Q14524, A410W/I408W/L409C); experiment: Open channel block, persistent current of inactivation-deficient WCW mutant; format: cell-based; details: for Hill-coefficient: persistent current
T2 construct: expressed in transfected cells; host or cells: tsA201 (HEK293 derivative)
Description: as §1, §2, §3

hNav1.5 [6] = target: T1, hNav1.5; experiment: Time-dependent development of block (inactivating pre-pulse to −20 mV of variable duration); format: cell-based; set-up: expressed in transfected cells; host or cells: tsA201 (HEK293 derivative); details: for remaining current at the longest inactivation time: inactivation up to 30 s at −20 mV; for time constant of reduction of availability: single exponential, inactivation at −20 mV; for Amount of τ1 component / Amount of τ2 component / τ1 of block development / τ2 of block development: double exponential fit
Description: as §1, §2
Association (k on in µM^−1s^−1) and dissociation rates (k off in s^−1) were estimated from the slope and the y-intercept of a linear regression where the inverse of the fast time constants (1/τ) was plotted against the drug concentration [D] (Kuo et al., 1997). 1/τ=koff+kon∗[D] (9)
The corresponding dissociation constants were calculated according to: Kd=koff/kon (10)
Next, a set of experiments was performed to describe the time course of block development. The protocol is illustrated in Figure 7D. Briefly, after channel activation from a holding potential of −140 mV for control, ample time for full recovery at the holding potential was provided. Thereafter, the channels were inactivated for a variable duration (range: 25 ms–30 s) at a potential of −20 mV. Immediately before the test-pulse, channels were allowed to recover once more at the holding potential to eliminate or minimize the impact from fast inactivation. For evaluation, the current amplitudes obtained for test-pulses were related to their controls. […] For further evaluation, data were normalized with respect to control values (Figure 7B). […] The on-rate (k on ) was directly taken from the slope of the linear regression and the off-rate (k off ) was given by the y-intercept (Eq. 9, 10). For estimating the affinity for the inactivated state, the K i values were separately calculated for each cell according to the relation K i = k off /k on .
FIGURE 7 Time-dependent interaction. […] (B) Data from A, normalized with respect to control. […] Kon and koff values were taken from the slope and the y-intercept of the linear regression, respectively. […] (D) Experimental scheme. Starting from a holding potential of −140 mV, first a control pulse to […] was executed. Thereafter, ample time (2 s) was given to allow for full recovery before channels were inactivated for a variable duration at −20 mV. The test-pulse was carried out after a short recovery at −140 mV. For evaluation, test-pulse amplitudes were related to their controls.
FIGURE 15 Time-dependent interaction of imipridone derivatives.

hNav1.5 [7] = target: T1, hNav1.5; details: 40 µM (highest concentration tested); holding potential −140 mV; 30 s preincubation
Description: as §1
Unless otherwise stated, the membrane potential was held at −140 mV from which channel activations were elicited by brief depolarizing pulses to −20 mV of 5 ms duration. In order to minimize voltage errors, the series resistance was compensated up to 80%. […]

hNav1.5 [8] = target: T1, hNav1.5
Description: as §1, §2

hNav1.5 [9] = target: T1, hNav1.5; experiment: Interaction with the inactivated state: steady-state parameters (20 s inactivation at −20 mV); format: cell-based; set-up: expressed in transfected cells; host or cells: tsA201 (HEK293 derivative); details: for Hill-coefficient n: concentration-inhibition curve after 20 s inactivation at −20 mV
Description: as §1, §2, §3
I D and I C are the current amplitudes in the presence and absence of the drug, where [D] is the concentration of the drug.
To this end, a double pulse protocol was used as outlined by Figure 8B. […] To minimize drift effects during these long-lasting experiments, each run included its own control. Thus, drug effects as measured by the test-pulse were related to the timely executed control activation. […]

## Cc1ccccc1CN1C(=O)C2=C(CCN(Cc3ccccc3)C2)N2CCN=C12 [TIC10]
hNav1.5 [1]; in the presence of 10 µM, 5.3 ± 0.9 mV in the absence
  slope of fast inactivation curve: 5.4 ± 0.9 mV
hNav1.5 [2]; 10 s inactivation
  Amount of τ1 component: 36.3 ± 16.0%
  Amount of τ2 component: 62.2 ± 15.7%
  τ1 for recovery from slow-inactivation: 128.1 ± 80.3 ms
  τ2 for recovery from slow-inactivation: 548.4 ± 287.4 ms
hNav1.5 [2]; 500 ms inactivation at −20 mV, recovery at −140 mV, control 92.6 ± 4.0%
  proportion of fast recovering channels: 75.6 ± 7.0%
hNav1.5 [2]; control 1.4 ± 0.6 ms
  recovery time constant τ1: 2.3 ± 1.2 ms
hNav1.5 [2]; control 23.6 ± 12.0 ms
  recovery time constant τ2: 267.6 ± 73.1 ms
hNav1.5 [3]; 10 µM, 10 s pre-pulses, control −42.9 ± 5.0 mV
  potential of half-maximal slow inactivation: −92.7 ± 7.0 mV
hNav1.5 [3]; 10 µM, control 21.5 ± 2.7 mV
  slope of slow inactivation curve: 12.8 ± 0.9 mV
hNav1.5 [3]; 10 µM, control 45.6 ± 10.9%
  availability (remaining current amplitude) at pre-pulse potential 0 mV: 4.7 ± 2.8%
hNav1.5 [3]; read-out: inhibition normalized to control at 0 mV
  inhibition at 10 µM: 89.7 ± 6.5%
hNav1.5 [3]; read-out: inhibition normalized to control at −40 mV
  inhibition at 10 µM: 88.3 ± 5%
hNav1.5 N406C mutant
  Hill-coefficient: 1.2 ± 0.1
hNav1.5 F1760K mutant; F1760K mutant
  Hill-coefficient: 1.5 ± 0.1
hNav1.5 F1760K mutant
  reduction of affinity of F1760K mutant compared to wild type: more than 20 fold
[4]
  maximal plasma concentration: 4.3 µM
[5]
  Hill-coefficient: 0.9 ± 0.1
[5]; up to 40 µM
  effect on transient current (resting state): hardly affected
hNav1.5 [6]; 2.5 µM, control 59.2 ± 7.7%
  remaining current at the longest inactivation time: 46.0 ± 4.8%
hNav1.5 [6]; 2.5 µM, control 10.1 ± 2.0 s
  time constant of reduction of availability: 5.3 ± 1.9 s
hNav1.5 [6]; 10 µM
  remaining current at the longest inactivation time: 16.9 ± 6.4%
  time constant of reduction of availability: 2.0 ± 0.8 s
hNav1.5 [7]
  remaining current (of control): 93.2 ± 4.3%
hNav1.5 [8]; 10 µM, holding potential −90 mV, depolarization to −20 mV
  current amplitude in the presence of TIC10 compared to control: about half of its size
hNav1.5 [8]; in the presence of 10 µM, control 7.2 ± 0.6 mV
  slope (k) of activation curve: 7.9 ± 0.8 mV
hNav1.5 [8]; in the presence of 10 µM, control −43.1 ± 2.9 mV
  potential of half-maximal activation (midpoint of activation curve): −44.8 ± 2.8 mV
hNav1.5 [9]
  Hill-coefficient n: 1.2 ± 0.1

## O=C1C2=C(CCN(Cc3ccccc3)C2)N2CCN=C2N1Cc1ccc(C(F)(F)F)cc1 [ONC212]
hNav1.5 [1]; 10 µM, 500 ms pre-pulses, corrected for drug independent shift
  shift of midpoints of fast inactivation: −4.7 ± 0.4 mV and −4.7 ± 0.42 mV
[5]
  Hill-coefficient: 1.4 ± 0.2
hNav1.5 [6]; 2.5 µM
  Amount of τ1 component: 8.8 ± 4.5%
  Amount of τ2 component: 57.4± 6.6%
  τ1 of block development: 0.2 ± 0.06 s
  τ2 of block development: 4.6 ± 0.95 s
hNav1.5 [6]; 10 µM
  Amount of τ1 component: 45.2 ± 6.5%
  Amount of τ2 component: 46.9 ± 7.2%
  τ1 of block development: 0.1 ± 0.03 s
  τ2 of block development: 2.2 ± 0.27 s
hNav1.5 [9]; after 20 s inactivation at −20 mV, short recovery at −140 mV, wild type, read-out: half-maximal inhibition (IC50), representing the affinity for the inactivated state (Ki)
  IC50: 2500 ± 700 nM
hNav1.5 [9]
  Hill-coefficient n: 1.5 ± 0.1
